≈ marks a conversion by molar mass, not a printed value.
Experiments:
[1] = Inhibition of full-length N-terminal His-tagged Escherichia coli FabH expressed in Escherichia coli BL21 (DE3) using acetyl-CoA/[3H]-acetyl-CoA/holo-ACP as substrate by liquid scintillation counting analysis
[2] = system: Escherichia coli; assay: Antibacterial activity against Escherichia coli ATCC 35218 after 24 hrs by MTT assay; assay type: functional; details: ATCC 35218, 24 h
[3] = system: Pseudomonas aeruginosa; assay: Antibacterial activity against Pseudomonas aeruginosa ATCC 13525 after 24 hrs by MTT assay; assay type: functional; details: ATCC 13525, 24 h
[4] = system: Bacillus spizizenii; assay: Antibacterial activity against Bacillus subtilis ATCC 6633 after 24 hrs by MTT assay; assay type: functional; details: ATCC 6633, 24 h
[5] = Hemolytic activity in RBC (unknown origin); assay type: ADME, cell-based; details: erythrocyte
[6] = system: Staphylococcus aureus; assay: Antibacterial activity against Staphylococcus aureus ATCC 6538 after 24 hrs by MTT assay; assay type: functional; details: ATCC 6538, 24 h

IC50 [1] [µM]	MIC [2] [µg/mL]	MIC [3] [µg/mL]	MIC [4] [µg/mL]	MIC [6] [µg/mL]	SMILES	LC30 [5] [mg/mL]
12.8	25 (≈ 45.3 µM)	> 50	25 (≈ 45.3 µM)	6.25 (≈ 11.3 µM)	Cc1nn(-c2ccccc2)c(-n2ccnc2)c1C1CC(c2cccs2)=NN1C1=NC(=O)/C(=C/c2ccco2)S1 (configuration not stated)	> 10
26.1	50 (≈ 90.5 µM)	50 (≈ 90.5 µM)	25 (≈ 45.2 µM)	> 50	Cc1nn(-c2ccccc2)c(-n2cncn2)c1C1CC(c2cccs2)=NN1C1=NC(=O)/C(=C/c2ccco2)S1 (configuration not stated)	> 10
21.9	> 50	6.25 (≈ 10.4 µM)	> 50	50 (≈ 83 µM)	Cc1nn(-c2ccccc2)c(-n2nnc3ccccc32)c1C1CC(c2cccs2)=NN1C1=NC(=O)/C(=C/c2ccco2)S1 (configuration not stated)	> 10
15.6	25 (≈ 44 µM)	50 (≈ 87.9 µM)	25 (≈ 44 µM)	6.25 (≈ 11 µM)	Cc1nn(-c2ccccc2)c(-n2cncn2)c1C1CC(c2cccs2)=NN1C1=NC(=O)/C(=C/c2cccs2)S1 (configuration not stated)	> 10
4.7	12.5 (≈ 20.8 µM)	> 50	25 (≈ 41.5 µM)	> 50	Cc1nn(-c2ccccc2)c(-n2cncn2)c1C1CC(c2cccs2)=NN1C1=NC(=O)/C(=C/c2c[nH]c3ccccc23)S1 (configuration not stated)	> 10

The next lines start with the compound.

SMILES	IC50 [1] [µM]	MIC [2] [µg/mL]	MIC [3] [µg/mL]	MIC [4] [µg/mL]	MIC [6] [µg/mL]	LC30 [5] [mg/mL]
Cc1nn(-c2ccccc2)c(-n2cnc3ccccc32)c1C1CC(c2cccs2)=NN1C1=NC(=O)/C(=C/c2c[nH]c3ccccc23)S1 (configuration not stated)	2.5	3.13 (≈ 4.81 µM)	12.5 (≈ 19.2 µM)	12.5 (≈ 19.2 µM)	50 (≈ 76.8 µM)	> 10
Cc1nn(-c2ccccc2)c(-n2ccnc2)c1C1CC(c2cccs2)=NN1C1=NC(=O)/C(=C/c2c[nH]c3ccccc23)S1 (configuration not stated)	3.9	6.25 (≈ 10.4 µM)	3.13 (≈ 5.21 µM)	25 (≈ 41.6 µM)	50 (≈ 83.2 µM)	> 10
CC1(C)S[C@@H]2[C@H](NC(=O)Cc3ccccc3)C(=O)N2[C@H]1C(=O)O [PENICILLIN G]		3.13 (≈ 9.36 µM)	6.25 (≈ 18.7 µM)	1.56 (≈ 4.67 µM)	6.25 (≈ 18.7 µM)	
Cc1nn(-c2ccccc2)c(-n2ccnc2)c1C1CC(c2cccs2)=NN1C1=NC(=O)/C(=C/c2cccs2)S1 (configuration not stated)	11.3	> 50	25 (≈ 44 µM)	> 50	25 (≈ 44 µM)	> 10
Cc1nn(-c2ccccc2)c(-n2cnc3ccccc32)c1C1CC(c2cccs2)=NN1C1=NC(=O)/C(=C/c2ccco2)S1 (configuration not stated)	8.5	> 50	> 50	6.25 (≈ 10.4 µM)	12.5 (≈ 20.8 µM)	> 10
NC[C@H]1O[C@H](O[C@H]2[C@H](O)[C@@H](O[C@H]3O[C@H](CO)[C@@H](O)[C@H](N)[C@H]3O)[C@H](N)C[C@@H]2N)[C@H](N)[C@@H](O)[C@@H]1O [BEKANAMYCIN]	6.3	1.56 (≈ 3.23 µM)	3.13 (≈ 6.47 µM)	0.39 (≈ 0.807 µM)	1.56 (≈ 3.23 µM)	> 10
Cc1nn(-c2ccccc2)c(-n2nnc3ccccc32)c1C1CC(c2cccs2)=NN1C1=NC(=O)/C(=C/c2c[nH]c3ccccc23)S1 (configuration not stated)	3.1	3.13 (≈ 4.8 µM)	6.25 (≈ 9.59 µM)	> 50	25 (≈ 38.4 µM)	> 10
Cc1nn(-c2ccccc2)c(-n2cnc3ccccc32)c1C1CC(c2cccs2)=NN1C1=NC(=O)/C(=C/c2cccs2)S1 (configuration not stated)	9.1	25 (≈ 40.5 µM)	25 (≈ 40.5 µM)	3.13 (≈ 5.07 µM)	25 (≈ 40.5 µM)	> 10
Cc1nn(-c2ccccc2)c(-n2nnc3ccccc32)c1C1CC(c2cccs2)=NN1C1=NC(=O)/C(=C/c2cccs2)S1 (configuration not stated)	17.5	50 (≈ 80.8 µM)	6.25 (≈ 10.1 µM)	12.5 (≈ 20.2 µM)	> 50	> 10

Source: ChEMBL document CHEMBL3596127, “Design, synthesis and molecular docking of novel bipyrazolyl thiazolone scaffold as a new class of antibacterial agents” (Medchemcomm, 2014)
